Patent US10828315B2 (Madrigal Pharmaceuticals, Inc., priority 2013, dated 2020)
Structures can show the parent of a compound that is named as a salt.

Each compound was assayed on HER2 (assay: HER2 degradation assay with BT-474 cell line (Example 12, FACS)).
Assay type: cell-based, human
Text: HER2 has emerged as a key target for anticancer drugs due to its intrinsic involvement in the phosphatidylinositol-3-kinase-Akt/protein kinase B (PI3K-Akt) and the mitogen-activated protein kinase (MAPK) pathways, both of which suppress apoptosis and promote tumor cell survival, gene transcription, angiogenesis, cellular proliferation, migration, mitosis, and differentiation. The degradation of HER2 is a measure of efficacy of anticancer therapeutics that target Hsp90. Accordingly, the SDC-TRAP molecules of the invention that comprise a binding moiety that binds Hsp90 were tested in the following HER2 degradation assay.
BT-474 cells (human breast cancer cell line ATCC HTB-20) were obtained from ATCC and seeded into 12-well tissue culture plates at 0.2×10^6/1.8 mL/well. […] Each test compound was titrated in 4-fold dilutions from 5 μM to 78 nM with DMSO and 200 μL of the titration was added to each well of the cell plate. The DMSO final concentration was 0.2%. Cells were incubated overnight at 37° C. in 5% CO2.
Media was decanted from the plate, cells were washed 1× in PBS. 400 μL trypsin (EDTA) per well was added, and the cells were incubated for 2 to 3 minutes. Cells were collected into FACS tubes containing 1 ml culture medium to neutralize the trypsin and were centrifuged for 5 minutes at 1200 rpm. Supernatant was decanted and the cells were resuspended in 5 μL FITC (anti HER2/nu)/200 μL staining buffer (1×PBS+1% FBS+0.05% Sodium Azide)/tube. Controls were 5 μL IgG isotype control and staining buffer only. Tubes were incubated for 30 minutes in the dark at room temperature. 1 mL staining buffer was added to each tube and the tubes were centrifuged for 6 minutes at 1200 rpm. The supernatant was decanted and 300 μL staining buffer was added to each tube, which was store at 4° C. fpr FACS (cytometer) analysis. The cytometer readout was normalized and the potency of each compound is evaluated with IC50 calculated with XLfit™ software.
In the case of `CCc1c2c(nc3ccc(O)cc13)-c1cc3c(c(=O)n1C2)COC(=O)C3(CC)OC(=O)C1CCN(C(=O)Cc2ccc(-n3c(O)nnc3-c3cc(C(C)C)c(O)cc3O)cc2)CC1` (stereo not shown) [SDC-TRAP-0097, 4,11-diethyl-9-hydroxy-3,14-dioxo-3,4,12,14-tetrahydro-1H-pyrano[3′,4′:6,7]indolizino[1,2-b]quinolin-4-yl 1-(2-(4-(3-(2,4-dihydroxy-5-isopropylphenyl)-5-hydroxy-4H-1,2,4-triazol-4-yl)phenyl)acetyl)piperidine-4-carboxylate], the IC50 is reported as > 5000 nM. `COc1ccc(/C=C\c2cc(OC)c(OC)c(OC)c2)cc1OC(=O)N1CCN(Cc2ccc(-n3c(O)nnc3-c3cc(C(C)C)c(O)cc3O)cc2)CC1` [SDC-TRAP-0085, (Z)-2-methoxy-5-(3,4,5-trimethoxystyryl)phenyl 4-(4-(3-(2,4-dihydroxy-5-isopropylphenyl)-5-hydroxy-4H-1,2,4-triazol-4-yl)benzyl) piperazine-1-carboxylate] showed an IC50 of 889 nM. Work on `CCc1c2c(nc3ccc(OC(=O)N4CCC(CCN5CCN(c6ccc(-n7c(O)nnc7-c7cc(C(C)C)c(O)cc7O)cc6)CC5)CC4)cc13)-c1cc3c(c(=O)n1C2)COC(=O)C3(O)CC` (stereo not shown) [SDC-TRAP-0070, 4,11-diethyl-4-hydroxy-3,14-dioxo-3,4,12,14-tetrahydro-1H-pyrano[3′,4′:6,7]indolizino[1,2-b]quinolin-9-yl 4-(2-(4-(4-(3-(2,4-dihydroxy-5-isopropylphenyl)-5-hydroxy-4H-1,2,4-triazol-4-yl)phenyl)piperazin-1-yl)ethyl)piperidine-1-carboxylate] yielded an IC50 of 263 nM. `CCc1c2c(nc3ccc(O)cc13)-c1cc3c(c(=O)n1C2)COC(=O)C3(CC)OC(=O)C1CCN(C(=O)CN2CCN(c3ccc(-n4c(O)nnc4-c4cc(C(C)C)c(O)cc4O)cc3)CC2)CC1` (stereo not shown) [SDC-TRAP-0111, 4,11-Diethyl-9-hydroxy-3,14-dioxo-3,4,12,14-tetrahydro-1H-pyrano[3′,4′:6,7]indolizino[1,2-b]quinolin-4-yl 1-(2-(4-(4-(3-(2,4-dihydroxy-5-isopropylphenyl)-5-hydroxy-4H-1,2,4-triazol-4-yl)phenyl)piperazin-1-yl)acetyl)piperidine-4-carboxylate] was tested, and the IC50 was > 5000 nM. With `CCNC(=O)c1nnc(-c2cc(C(C)C)c(O)cc2O)n1-c1ccc(OC2CCN(C(=O)[C@@H]3CCCN3C(=O)O[C@]3(CC)C(=O)OCc4c3cc3n(c4=O)Cc4c-3nc3ccc(O)cc3c4CC)CC2)cc1` [SDC-TRAP-0214, (S)—(S)-4,11-diethyl-9-hydroxy-3,14-dioxo-3,4,12,14-tetrahydro-1H-pyrano[3′,4′:6,7]indolizino[1,2-b]quinolin-4-yl 2-(4-(4-(3-(2,4-dihydroxy-5-isopropylphenyl)-5-(ethylcarbamoyl)-4H-1,2,4-triazol-4-yl)phenoxy)piperidine-1-carbonyl)pyrrolidine-1-carboxylate] the IC50 was > 5000 nM. For `CCc1c2c(nc3ccc(OC(C)=O)cc13)-c1cc3c(c(=O)n1C2)COC(=O)C3(CC)OC(=O)N1CCN(Cc2ccc(-n3c(O)nnc3-c3cc(C(C)C)c(O)cc3O)cc2)CC1` (stereo not shown) [SDC-TRAP-0074, 9-acetoxy-4,11-diethyl-3,14-dioxo-3,4,12,14-tetrahydro-1H-pyrano[3′,4′:6,7]indolizino[1,2-b]quinolin-4-yl 4-(4-(3-(2,4-dihydroxy-5-isopropylphenyl)-5-hydroxy-4H-1,2,4-triazol-4-yl)benzyl) piperazine-1-carboxylate], the IC50 was 4120 nM. Work on `CCNC(=O)c1nnc(-c2cc(C(C)C)c(O)cc2O)n1-c1ccc(CN2CCC(C(=O)N(C)CCC(=O)OC3(CC)C(=O)OCc4c3cc3n(c4=O)Cc4c-3nc3ccc(O)cc3c4CC)CC2)cc1` (stereo not shown) [SDC-TRAP-0100, 4,11-Diethyl-9-hydroxy-3,14-dioxo-3,4,12,14-tetrahydro-1H-pyrano[3′,4′:6,7]indolizino[1,2-b]quinolin-4-yl 3-(1-(4-(3-(2,4-dihydroxy-5-isopropylphenyl)-5-(ethylcarbamoyl)-4H-1,2,4-triazol-4-yl)benzyl)-N-methylpiperidine-4-carboxamido)propanoate] yielded an IC50 of 80 nM. For `CCc1c2c(nc3ccc(O)cc13)-c1cc3c(c(=O)n1C2)COC(=O)[C@@]3(CC)OC(=O)N1CCC(Oc2ccc(-n3c(O)nnc3-c3cc(C(C)C)c(O)cc3O)cc2)CC1` [SDC-TRAP-0012, (S)-4,11-diethyl-9-hydroxy-3,14-dioxo-3,4,12,14-tetrahydro-1H-pyrano[13′,4′:6,7]indolizino[1,2-b]quinolin-4-yl-4-(4-(3-(2,4-dihydroxy-5-isopropylphenyl)-5-hydroxy-4H-1,2,4-triazol-4-yl)phenoxy)piperidine-1-carboxylate hydrochloride], the IC50 was > 5000 nM. `CCc1c2c(nc3ccc(O)cc13)-c1cc3c(c(=O)n1C2)COC(=O)C3(CC)OC(=O)N1CCN(Cc2cc3cc(-n4c(O)nnc4-c4cc(C(C)C)c(O)cc4O)ccc3n2C)CC1` (stereo not shown) [SDC-TRAP-0075, 4,11-diethyl-9-hydroxy-3,14-dioxo-3,4,12,14-tetrahydro-1H-pyrano[3′,4′:6,7]indolizino[1,2-b]quinolin-4-yl 4-((5-(3-(2,4-dihydroxy-5-isopropylphenyl)-5-hydroxy-4H-1,2,4-triazol-4-yl)-1-methyl-1H-indol-2-yl)methyl)piperazine-1-carboxylate] gave an IC50 of 953 nM. For `CCc1c2c(nc3ccc(OC(=O)N4CCC(CCc5ccc(-n6c(O)nnc6-c6cc(C(C)C)c(O)cc6O)cc5)CC4)cc13)-c1cc3c(c(=O)n1C2)COC(=O)[C@]3(O)CC` [SDC-TRAP-0086, (S)-4,11-diethyl-4-hydroxy-3,14-dioxo-3,4,12,14-tetrahydro-1H-pyrano[3′,4′:6,7]indolizino[1,2-b]quinolin-9-yl 4-(4-(3-(2,4-dihydroxy-5-isopropylphenyl)-5-hydroxy-4H-1,2,4-triazol-4-yl)phenethyl)piperidine-1-carboxylate], the IC50 was > 5000 nM. `CCc1c2c(nc3ccc(OC(=O)NCCOCCn4ccc5cc(-n6c(O)nnc6-c6cc(C(C)C)c(O)cc6O)ccc54)cc13)-c1cc3c(c(=O)n1C2)COC(=O)C3(O)CC` (stereo not shown) [SDC-TRAP-0016, 4,11-diethyl-4-hydroxy-3,14-dioxo-3,4,12,14-tetrahydro-1H-pyrano[3′,4′:6,7]indolizino[1,2-b]quinolin-9-yl (2-(2-(5-(3-(2,4-dihydroxy-5-isopropylphenyl)-5-hydroxy-4H-1,2,4-triazol-4-yl)-1H-indol-1-yl)ethoxy)ethyl)carbamate] was tested, and the IC50 was > 5000 nM. With `CCc1c2c(nc3ccc(O)cc13)-c1cc3c(c(=O)n1C2)COC(=O)C3(CC)OC(=O)N1CCN(C(=O)CCc2ccc(-n3c(O)nnc3-c3cc(C(C)C)c(O)cc3O)cc2)CC1` (stereo not shown) [SDC-TRAP-0060, 4,11-diethyl-9-hydroxy-3,14-dioxo-3,4,12,14-tetrahydro-1H-pyrano[3′,4′:6,7]indolizino[1,2-b]quinolin-4-yl 4-(3-(4-(3-(2,4-dihydroxy-5-isopropylphenyl)-5-hydroxy-4H-1,2,4-triazol-4-yl)phenyl)propanoyl)piperazine-1-carboxylate] the IC50 was > 5000 nM. `CCNC(=O)c1nnc(-c2cc(C(C)C)c(O)cc2O)n1-c1ccc(C(=O)N2CCN(c3ccc(OC(=O)Nc4cccc5c4CN(C4CCC(=O)NC4=O)C5=O)c(C)c3)CC2)cc1` (stereo not shown) [SDC-TRAP-0176, 4-(4-(4-(3-(2,4-dihydroxy-5-isopropylphenyl)-5-(ethylcarbamoyl)-4H-1,2,4-triazol-4-yl)benzoyl)piperazin-1-yl)-2-methylphenyl (2-(2,6-dioxopiperidin-3-yl)-1-oxoisoindolin-4-yl)carbamate] showed an IC50 of 178 nM. `Cc1cc(C(=O)N2CCN(Cc3ccc(-n4c(O)nnc4-c4cc(C(C)C)c(O)cc4O)cc3F)CC2)cc(C)c1OC(=O)Nc1cccc2c1CN(C1CCC(=O)NC1=O)C2=O` (stereo not shown) [SDC-TRAP-0168, 4-(4-(4-(3-(2,4-dihydroxy-5-isopropylphenyl)-5-hydroxy-4H-1,2,4-triazol-4-yl)-2-fluorobenzyl)piperazine-1-carbonyl)-2,6-dimethylphenyl (2-(2,6-dioxopiperidin-3-yl)-1-oxoisoindolin-4-yl)carbamate] was tested, and the IC50 was 276 nM. `CCNC(=O)c1nnc(-c2cc(C(C)C)c(O)cc2O)n1-c1ccc(C(=O)N2CCN(c3ccc(OC(=O)Nc4cccc5c4CN(C4CCC(=O)NC4=O)C5=O)cc3)CC2)cc1` (stereo not shown) gave an IC50 of 254 nM. Work on `CCNC(=O)c1nnc(-c2cc(C(C)C)c(O)cc2O)n1-c1ccc(Oc2ccc(C(=O)N(C)CCC(=O)OC3(CC)C(=O)OCc4c3cc3n(c4=O)Cc4c-3nc3ccc(O)cc3c4CC)cc2)cc1` (stereo not shown) [SDC-TRAP-0169, 4,11-diethyl-9-hydroxy-3,14-dioxo-3,4,12,14-tetrahydro-1H-pyrano[3′,4′:6,7]indolizino[1,2-b]quinolin-4-yl 3-(4-(4-(3-(2,4-dihydroxy-5-isopropylphenyl)-5-(ethylcarbamoyl)-4H-1,2,4-triazol-4-yl)phenoxy)-N-methylbenzamido)propanoate] yielded an IC50 of 611 nM.
